We go through eleven compounds from PubChem BioAssay (NCI).

Each structure is given as a SMILES string.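 Interpolation was linear, between the two tested concentrations surrounding the appropriate level; five concentrations were tested over 48 hours in 96-well plates. GI50 = concentration required for 50% inhibition of growth. Definition used: TGI = concentration required for complete inhibition of growth.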 *1 amine or outer side, *2 acyl side, *3 side chain or, on linkers, in order; H or OH if unused. Where a SMILES comes first, the peptide text is derived from it. Bridges are numbered along the chain shown (N, C = ends). Roman numbers before positions name the chains, in order. X23 = CCCCCCCCCCCCCCC(=O)NC(CCCCN[*:2])C(=O)CN1CCCC1C(=O)[*:1]

Among the test systems are A549 NSCLC; ACHN renal; U251 CNS; HOP-92 NSCLC; SF-539 CNS; TK-10 renal; SK-MEL-5 melanoma; EKVX NSCLC; MDA-MB-231 breast; NCI/ADR-RES ovarian.
Holding throughout (test): NCI tumour cell line growth inhibition, 48 h

Consider `O=C1NC2(NC(=O)C1=O)Nc1ccccc1S2`, for which the TGI with A549 NSCLC was above 100 µM; in the test with ACHN renal, above 76.1 µM; in the test on U251 CNS it was above 82.5 µM; in the test on HOP-92 NSCLC, above 100 µM; in the test on SF-539 CNS, 62.7 µM; in the test on TK-10 renal, above 100 µM. Besides, the TGI in the test with SK-MEL-5 melanoma and with EKVX NSCLC was above 100 µM in each case.

`COC[C@@H]1Cc2cc(OC)c3c(c2[C@H](c2ccc(OC)c(OC)c2)[C@H]1COC)OCO3`: the TGI in the test on A549 NSCLC, in the test with ACHN renal, in the test with U251 CNS, in the test on HOP-92 NSCLC, in the test with SF-539 CNS and with TK-10 renal was above 100 µM each time. Also, the TGI in the test with EKVX NSCLC is above 100 µM.

Regarding `CC(C)(C)C(=O)CC(=O)C(F)(F)C(F)(F)C(F)(F)F.CC(C)(C)C(=O)CC(=O)C(F)(F)C(F)(F)C(F)(F)F.CC(C)(C)C(=O)CC(=O)C(F)(F)C(F)(F)C(F)(F)F.[Er]`, the TGI in the test on A549 NSCLC, with ACHN renal, in the test with U251 CNS, with SF-539 CNS, in the test with TK-10 renal and with MDA-MB-231 breast was above 100 µM in each case. The compound further returned a TGI in the test with EKVX NSCLC of 96.8 µM.

As for `CC(C)(C)OC(=O)N1CCCC1C(=O)NCCNc1ccc(NCCNC(=O)C2CCCN2C(=O)OC(C)(C)C)c2c1C(=O)c1ccccc1C2=O` (stereo not given), the TGI in the test with A549 NSCLC was found to be 33.9 µM; with ACHN renal it was 31.6 µM; with U251 CNS, 44.6 µM; with HOP-92 NSCLC, 30.1 µM; in the test on NCI/ADR-RES ovarian, 29.6 µM; in the test with SF-539 CNS, 30.1 µM. Moreover, the TGI in the test with TK-10 renal is 49.1 µM; in the test with MDA-MB-231 breast it was 25.9 µM; in the test with EKVX NSCLC, above 100 µM.

As to `CN(CCNC(=O)c1cn(C)c2c1ccc1cc(Cl)ccc12)CCNC(=O)c1cn(C)c2c1ccc1cc(Cl)ccc12`, the TGI was 9.73 µM in the test on ACHN renal; above 100 µM in the test with U251 CNS; 18.8 µM in the test with HOP-92 NSCLC; 3.6 µM with NCI/ADR-RES ovarian; 9.35 µM in the test with SF-539 CNS; 18.2 µM in the test with TK-10 renal. In addition, the TGI with MDA-MB-231 breast was 71.8 µM; with SK-MEL-5 melanoma it was above 26.9 µM; with EKVX NSCLC, 4.04 µM.

On to `CCCCCCCCCCCCCCC(=O)NC(CCCCNC(=O)C1CCCN1C(=O)C(CCCCN)NC(=O)C(CCCCN)NC(=O)C(CCCCN)NC(=O)C(CCCNC(=N)N)NC(=O)C(CCCCN)NC(=O)C(N)C(C)C)C(=O)CN1CCCC1C(=O)NCC(=O)NC(Cc1ccccc1)C(=O)N1CCCC1C(=O)NC(CO)C(=O)NC(Cc1ccc(O)cc1)C(=O)NC(CCCCN)C(=O)NC(CC(C)C)C(=O)NC(CCCNC(=N)N)C(=O)N1CCCC1C(=O)NCC(N)=O` (stereo not given) (I: GFPSYKLRPG-NH2 / II: H-VKRKKKP; linker I:N-II:C via X23; configuration not given here), for which the GI50 with A549 NSCLC was 19.2 µM; in the test with HOP-92 NSCLC, 27 µM; with NCI/ADR-RES ovarian it was 19.6 µM; with SF-539 CNS, 27.7 µM; with TK-10 renal it was 0.704 µM; in the test with MDA-MB-231 breast, 20.9 µM. Besides, the GI50 with SK-MEL-5 melanoma is 8.01 µM; in the test with EKVX NSCLC it was 20.3 µM. Also, the TGI with A549 NSCLC was found to be 43.1 µM; in the test with HOP-92 NSCLC it was 65.1 µM; in the test on NCI/ADR-RES ovarian, 52.9 µM; in the test on SF-539 CNS, 75.1 µM; in the test on TK-10 renal, 13.7 µM; in the test on MDA-MB-231 breast, 43.7 µM. The TGI was above 100 µM with SK-MEL-5 melanoma and 58.7 µM in the test with EKVX NSCLC.

With `O=[P+](O)c1cccs1`, the TGI with A549 NSCLC, in the test with ACHN renal, in the test with U251 CNS, with HOP-92 NSCLC, in the test on SF-539 CNS and in the test on TK-10 renal was above 100 µM in each case. Moreover, the TGI in the test with SK-MEL-5 melanoma and with EKVX NSCLC was above 100 µM throughout.

As for `CC(=O)C1=C(C)N(c2ccc(C)cc2)C2(O)C=CC(=O)C3=C(O)c4ccccc4C(=O)C312` (stereo not given), the TGI is above 100 µM with A549 NSCLC; 36.8 µM with ACHN renal; 69.6 µM in the test on U251 CNS; above 100 µM in the test with HOP-92 NSCLC; above 100 µM in the test with NCI/ADR-RES ovarian; 97.6 µM in the test on SF-539 CNS. Moreover, the TGI was determined as 47.2 µM in the test on TK-10 renal, 70.2 µM with MDA-MB-231 breast, 26.3 µM with SK-MEL-5 melanoma and 61.2 µM in the test with EKVX NSCLC.

Take `CCOC(=O)c1c(SC)nc(-c2ccc(Cl)cc2)sc1=N`: the TGI in the test on A549 NSCLC is above 100 µM; in the test with ACHN renal, above 100 µM; in the test on U251 CNS, above 100 µM; in the test with HOP-92 NSCLC, above 100 µM; in the test on NCI/ADR-RES ovarian it was 73.5 µM; in the test on SF-539 CNS, above 100 µM. The TGI in the test with TK-10 renal is above 100 µM; in the test on MDA-MB-231 breast, above 100 µM; in the test with SK-MEL-5 melanoma it was 38.8 µM; with EKVX NSCLC, 55.2 µM.

Take `O=[N+]([O-])c1ccc(/C=N/n2c(CCc3n[nH]c(=S)n3/N=C/c3ccc([N+](=O)[O-])o3)n[nH]c2=S)o1`: the TGI with ACHN renal was 63.4 µM; in the test on U251 CNS, 50 µM; in the test on HOP-92 NSCLC, 33.6 µM; in the test with NCI/ADR-RES ovarian, 88.7 µM; in the test with SF-539 CNS it was above 100 µM; with TK-10 renal, above 100 µM. Further, the TGI is 52.4 µM in the test on MDA-MB-231 breast, 33.3 µM with SK-MEL-5 melanoma and above 100 µM in the test with EKVX NSCLC.

In the case of `CC1C(O)[C@@]2(OC[C@@]34C(=O)CC5(O)[C@H](CCC6Cc7nc8c(nc7C[C@]65C)CC5CC[C@@H]6C7=C[C@H]9O[C@@]%10(O[C@@](C)(CO)C[C@@H]%10O)C(C)[C@@]9(O)[C@]7(C)[C@@H](O)CC6[C@]5(C)C8)C3=CC[C@H]4C2C)OC1(C)C` (stereo not given in full), the TGI was 0.494 µM in the test on A549 NSCLC; 0.101 µM in the test on U251 CNS; 3.25 µM in the test on HOP-92 NSCLC; above 3.55 µM in the test on NCI/ADR-RES ovarian; 0.00487 µM with SF-539 CNS; 0.415 µM in the test with SK-MEL-5 melanoma. The compound also yielded a TGI in the test on EKVX NSCLC of 0.499 µM.
